Results taken from ChEMBL document CHEMBL1143424, “Diversity of penA alterations and subtypes in Neisseria gonorrhoeae strains from Sydney, Australia, that are less susceptible to ceftriaxone” (2007).

Legend:
[1] = tested on: Neisseria gonorrhoeae; assay: Antimicrobial activity against Neisseria gonorrhoeae isolate with PBP2 pattern 13 mutant NG-MAST sequence type 1413 by agar plate dilution method; type: functional
[2] = tested on: Neisseria gonorrhoeae; assay: microbe, parasite or virus in culture
Description: Antimicrobial activity against Neisseria gonorrhoeae isolate with PBP2 pattern 18 mutant NG-MAST sequence type 864 by agar plate dilution method

[3] = tested on: Neisseria gonorrhoeae; assay: microbe, parasite or virus in culture; remark: listed apart in the source
Description: Antimicrobial activity against Neisseria gonorrhoeae isolate with PBP2 pattern 10 mutant NG-MAST sequence type 835 by agar plate dilution method

[4] = tested on: Neisseria gonorrhoeae; assay: microbe, parasite or virus in culture; remark: listed apart in the source
Description: Antimicrobial activity against Neisseria gonorrhoeae isolate with PBP2 pattern 10 mutant NG-MAST sequence type 326 by agar plate dilution method

[5] = tested on: Neisseria gonorrhoeae; assay: Antimicrobial activity against Neisseria gonorrhoeae isolate with PBP2 pattern 13 mutant NG-MAST sequence type 1148 by agar plate dilution method; type: functional
[6] = tested on: Neisseria gonorrhoeae; assay: microbe, parasite or virus in culture; remark: listed apart in the source
Description: Antimicrobial activity against Neisseria gonorrhoeae isolate with PBP2 pattern 10 mutant NG-MAST sequence type 1677 by agar plate dilution method

[7] = tested on: Neisseria gonorrhoeae; assay: microbe, parasite or virus in culture; remark: listed apart in the source
Description: Antimicrobial activity against Neisseria gonorrhoeae isolate bropyst serotype with PBP2 pattern 12 mutant NG-MAST sequence type 604 by agar plate dilution method

[8] = tested on: Neisseria gonorrhoeae; assay: Antimicrobial activity against Neisseria gonorrhoeae isolate with PBP2 pattern 13 mutant NG-MAST sequence type 1425 by agar plate dilution method; type: functional
[9] = tested on: Neisseria gonorrhoeae; assay: Antimicrobial activity against Neisseria gonorrhoeae isolate with PBP2 pattern 17 mutant NG-MAST sequence type 1620 by agar plate dilution method; type: functional
[10] = tested on: Neisseria gonorrhoeae; assay: microbe, parasite or virus in culture; remark: listed apart in the source
Description: Antimicrobial activity against Neisseria gonorrhoeae isolate with PBP2 pattern 11 mutant NG-MAST sequence type 1420 by agar plate dilution method

[11] = tested on: Neisseria gonorrhoeae; assay: microbe, parasite or virus in culture; remark: listed apart in the source
Description: Antimicrobial activity against Neisseria gonorrhoeae isolate with PBP2 pattern 10 mutant NG-MAST sequence type 925 by agar plate dilution method

[12] = tested on: Neisseria gonorrhoeae; assay: microbe, parasite or virus in culture; remark: listed apart in the source
Description: Antimicrobial activity against Neisseria gonorrhoeae isolate with PBP2 pattern 13 mutant NG-MAST sequence type 1676 by agar plate dilution method

[13] = tested on: Neisseria gonorrhoeae; assay: microbe, parasite or virus in culture; remark: listed apart in the source
Description: Antimicrobial activity against Neisseria gonorrhoeae isolate with PBP2 pattern 7 mutant NG-MAST sequence type 1619 by agar plate dilution method

[14] = tested on: Neisseria gonorrhoeae; assay: microbe, parasite or virus in culture; remark: listed apart in the source
Description: Antimicrobial activity against Neisseria gonorrhoeae isolate with PBP2 pattern 5 mutant NG-MAST sequence type 1410 by agar plate dilution method

[15] = tested on: Neisseria gonorrhoeae; assay: microbe, parasite or virus in culture; remark: listed apart in the source
Description: Antimicrobial activity against Neisseria gonorrhoeae isolate with PBP2 pattern 13 mutant NG-MAST sequence type 1623 by agar plate dilution method

[16] = tested on: Neisseria gonorrhoeae; assay: microbe, parasite or virus in culture; remark: listed apart in the source
Description: Antimicrobial activity against Neisseria gonorrhoeae isolate with PBP2 pattern 12 mutant NG-MAST sequence type 604 by agar plate dilution method

[17] = tested on: Neisseria gonorrhoeae; assay: Antimicrobial activity against Neisseria gonorrhoeae isolate with PBP2 pattern 18 mutant NG-MAST sequence type 1621 by agar plate dilution method; type: functional
[18] = tested on: Neisseria gonorrhoeae; assay: microbe, parasite or virus in culture; remark: listed apart in the source
Description: Antimicrobial activity against Neisseria gonorrhoeae isolate with PBP2 pattern 12 mutant NG-MAST sequence type 1703 by agar plate dilution method

[19] = tested on: Neisseria gonorrhoeae; assay: microbe, parasite or virus in culture; remark: listed apart in the source
Description: Antimicrobial activity against Neisseria gonorrhoeae isolate with PBP2 pattern 4 mutant NG-MAST sequence type 69 by agar plate dilution method

[20] = tested on: Neisseria gonorrhoeae; assay: microbe, parasite or virus in culture; remark: listed apart in the source
Description: Antimicrobial activity against Neisseria gonorrhoeae isolate with PBP2 pattern 17 mutant NG-MAST sequence type 1342 by agar plate dilution method

[21] = tested on: Neisseria gonorrhoeae; assay: microbe, parasite or virus in culture; remark: listed apart in the source
Description: Antimicrobial activity against Neisseria gonorrhoeae isolate with PBP2 pattern 7 mutant NG-MAST sequence type 1622 by agar plate dilution method

[22] = tested on: Neisseria gonorrhoeae; assay: microbe, parasite or virus in culture; remark: listed apart in the source
Description: Antimicrobial activity against Neisseria gonorrhoeae isolate with PBP2 pattern 10 mutant NG-MAST sequence type 1424 by agar plate dilution method

[23] = tested on: Neisseria gonorrhoeae; assay: microbe, parasite or virus in culture; remark: listed apart in the source
Description: Antimicrobial activity against Neisseria gonorrhoeae isolate with PBP2 pattern 5 mutant NG-MAST sequence type 1688 by agar plate dilution method

[24] = tested on: Neisseria gonorrhoeae; assay: Antimicrobial activity against Neisseria gonorrhoeae isolate with PBP2 pattern 4 mutant NG-MAST sequence type 327 by agar plate dilution method; type: functional
[25] = tested on: Neisseria gonorrhoeae; assay: microbe, parasite or virus in culture; remark: listed apart in the source
Description: Antimicrobial activity against Neisseria gonorrhoeae isolate with PBP2 pattern 9 mutant NG-MAST sequence type 21 by agar plate dilution method

[26] = tested on: Neisseria gonorrhoeae; assay: Antimicrobial activity against Neisseria gonorrhoeae isolate with PBP2 pattern 7 mutant NG-MAST sequence type 1422 by agar plate dilution method; type: functional
[27] = tested on: Neisseria; assay: Antimicrobial activity against multiresistant Gonococcus; type: functional
[28] = tested on: Neisseria gonorrhoeae; assay: microbe, parasite or virus in culture; remark: listed apart in the source
Description: Antimicrobial activity against Neisseria gonorrhoeae isolate with PBP2 pattern 11 mutant NG-MAST sequence type 5 by agar plate dilution method

[29] = tested on: Neisseria gonorrhoeae; assay: microbe, parasite or virus in culture; remark: listed apart in the source
Description: Antimicrobial activity against Neisseria gonorrhoeae isolate with PBP2 pattern 13 mutant NG-MAST sequence type 1409 by agar plate dilution method

[30] = tested on: Neisseria gonorrhoeae; assay: microbe, parasite or virus in culture; remark: listed apart in the source
Description: Antimicrobial activity against Neisseria gonorrhoeae isolate with PBP2 pattern 10 mutant NG-MAST sequence type 1414 by agar plate dilution method

[31] = tested on: Neisseria gonorrhoeae; assay: microbe, parasite or virus in culture; remark: listed apart in the source
Description: Antimicrobial activity against Neisseria gonorrhoeae isolate with PBP2 pattern 12 mutant NG-MAST sequence type 1426 by agar plate dilution method

[32] = tested on: Neisseria gonorrhoeae; assay: microbe, parasite or virus in culture; remark: listed apart in the source
Description: Antimicrobial activity against Neisseria gonorrhoeae isolate with PBP2 pattern 20 mutant NG-MAST sequence type 211 by agar plate dilution method

[33] = tested on: Neisseria gonorrhoeae; assay: microbe, parasite or virus in culture; remark: listed apart in the source
Description: Antimicrobial activity against Neisseria gonorrhoeae isolate with PBP2 pattern 13 mutant NG-MAST sequence type 1624 by agar plate dilution method

[34] = tested on: Neisseria gonorrhoeae; assay: microbe, parasite or virus in culture; remark: listed apart in the source
Description: Antimicrobial activity against Neisseria gonorrhoeae isolate with PBP2 pattern 9 mutant NG-MAST sequence type 5 by agar plate dilution method

Measured: MIC

CO/N=C(\C(=O)N[C@@H]1C(=O)N2C(C(=O)O)=C(CSc3nc(=O)c(O)nn3C)CS[C@H]12)c1csc(N)n1 [CEFTRIAXONE]
0.5 mg/L: [27]
0.12 mg/L: [1] | [5] | [8] | [9] | [17] | [24] | [26]
0.06 mg/L: all other assays above
